Assay results from BindingDB's records for doi:10.1111/j.1747-0285.2011.01270.x (National Institutes of Health, 2012).

Each compound was assayed against T1, Gag-Pol polyprotein [1148-1435] (Human immunodeficiency virus 1, UniProt P04585) (assay: In Vitro Integrase Assay).
T1 construct: 1148-1435
Method: The compound were evaluated in biochemical IN (integrase) assay that measure inhibitory potency (IC50 values)against both the 3'-processing(3'P)and strand transfer(ST)reaction.

| SMILES | IC50 [µM] |
| --- | --- |
| CC(=O)OCc1[nH]c(=O)c(O)c2c1C(=O)N(Cc1ccc(F)c(Cl)c1)C2=O [Bicyclic hydroxy-1H-pyrrolopyridine-trione, 5f] | 12.3 |
| CC(=O)OCc1c2c(c(O)c(=O)n1C(C)C)C(=O)N(Cc1ccc(F)c(Cl)c1)C2=O [Bicyclic hydroxy-1H-pyrrolopyridine-trione, 5d] | 15.6 |
| Cc1c2c(c(O)c(=O)n1C)C(=O)N(Cc1ccc(F)c(Cl)c1)C2=O [Bicyclic hydroxy-1H-pyrrolopyridine-trione, 5a] | 6.7 |
| O=C1c2c(CO)[nH]c(=O)c(O)c2C(=O)N1Cc1ccc(F)c(Cl)c1 [Bicyclic hydroxy-1H-pyrrolopyridine-trione, 5g] | 6.5 |
| CC(C)Cc1c2c(c(O)c(=O)n1C(C)C)C(=O)N(Cc1ccc(F)c(Cl)c1)C2=O [Bicyclic hydroxy-1H-pyrrolopyridine-trione, 5c] | 21.6 |
| COC(=O)CCc1c2c(c(O)c(=O)n1C(C)C)C(=O)N(Cc1ccc(F)c(Cl)c1)C2=O [Bicyclic hydroxy-1H-pyrrolopyridine-trione, 5e] | 7.1 |
| Cc1c2c(c(O)c(=O)n1-c1ccccc1)C(=O)N(Cc1ccc(F)c(Cl)c1)C2=O [Bicyclic hydroxy-1H-pyrrolopyridine-trione, 5b] | 6.4 |
